From paper PMC10180488, “Novel Derivatives of Eugenol as a New Class of PPARγ Agonists in Treating Inflammation: Design, Synthesis, SAR Analysis and In Vitro Anti-Inflammatory Activity” (Molecules, 2023)
Where “and” joins values, the source holds several entries; their conditions need not be identical. Equal values may be shown once.

Key:
human PPARγ- LBD = biological target: T1, human PPARγ- LBD (Homo sapiens, UniProt P37231); assay: Lanthascreen TR-FRET PPARγ competitive binding assay; settings: for IC50: Lanthascreen TR-FRET competitive binding; for Raw Data / Raw Data - Background: TR-FRET
T1 construct: a mixture of a human PPARγ- LBD labelled with glutathione S-transferase (GST)
T1 sequence (P37231 238-503 limits assumed): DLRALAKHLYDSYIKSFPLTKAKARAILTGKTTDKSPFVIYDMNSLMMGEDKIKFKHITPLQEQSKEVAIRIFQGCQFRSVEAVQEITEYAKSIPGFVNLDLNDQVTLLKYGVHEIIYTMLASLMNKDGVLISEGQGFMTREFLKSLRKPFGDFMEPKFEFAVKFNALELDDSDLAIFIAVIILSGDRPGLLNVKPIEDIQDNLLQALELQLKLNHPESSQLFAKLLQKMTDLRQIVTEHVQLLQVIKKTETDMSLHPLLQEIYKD
Description: Using the Lanthasreen TR-FRET assay, the synthesized compounds were first preliminary tested for the PPARγ binding affinity. […] A chemical under test displaces the tracer from PPAR-LBD, which lowers the TR-FRET ratio and decreases the FRET signal Figure 8 [33].
A multimode low-volume proxy plate reader was used to read the plates after one hour of incubation. Then, a mixture of a human PPARγ- LBD labelled with glutathione S-transferase (GST), a fluorescent small pan-PPAR ligand (FluormoneTM Pan-PPAR Green), and terbium-labeled anti-GST antibody was added.

egg albumin = egg albumin (Gallus gallus, UniProt P01012); assay: Albumin denaturation assay; assay type: biochemical, hen; settings: mean ± SD (n = 3), read-out: Percentage inhibition of denaturation of albumin
egg albumin, sequence (P01012 2-386): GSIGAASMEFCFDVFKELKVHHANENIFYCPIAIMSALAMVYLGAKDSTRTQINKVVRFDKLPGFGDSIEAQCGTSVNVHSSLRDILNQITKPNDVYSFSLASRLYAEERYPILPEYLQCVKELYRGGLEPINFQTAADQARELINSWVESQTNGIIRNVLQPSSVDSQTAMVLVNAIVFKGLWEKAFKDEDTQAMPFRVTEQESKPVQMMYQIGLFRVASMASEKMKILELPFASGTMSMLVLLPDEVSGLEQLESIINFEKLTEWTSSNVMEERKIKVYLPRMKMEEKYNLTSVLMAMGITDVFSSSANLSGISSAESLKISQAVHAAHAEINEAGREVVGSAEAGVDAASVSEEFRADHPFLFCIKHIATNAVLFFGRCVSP
Description: Inflammation is accompanied by protein denaturation. Tissue protein denaturation is a well-established cause of Inflammatory illnesses. Inflammatory disorders including rheumatoid arthritis, diabetes, and cancer have been linked to the denaturation of proteins. The ability of a substance to stop proteins from becoming denaturized has a role in the prevention of inflammatory disorders. […] Denaturation of proteins is accomplished by keeping the reaction mixture in a water bath at 70 °C for […].
Minor modifications were made to Mizushima and Kobayashi’s and Sakat et al. methodologies. The reaction mixture containing 0.2 mL of egg albumin (from a fresh hen’s egg) is mixed with 2.8 mL of phosphate-buffered saline (PBS, pH 6.4) and 2 mL of synthesized compounds in varying concentrations. The mixture was then heated at 70 °C for 5 min after being incubated at 37 °C for approximately 15–20 min. After cooling, their absorbance was measured at 660 nm spectrometrically. Three duplicates of the experiment were carried out. […] Percentage inhibition = (OD control − OD sample/OD control) × 100

[1] = system: human red blood cells (HRBC); assay: HRBC membrane stabilization method; settings: for HRBC membrane stabilization (percentage protection against HRBC lysis): mean ± SD (n = 3); for IC50: Homo sapiens, Erythrocyte, read-out: IC50 Values, HRBC membrane stabilization method
Description: The principle of this procedure is to stabilize the membrane of human red blood cells by hypotonic membrane lysis. […] Lysosomal enzyme levels typically decrease as the HRBC membrane is stabilized.
The packed cells in this blood solution were separated after centrifugation at 3000 rpm [41]. The packed cells were cleaned using an isosaline solution, and then, isosaline was used to prepare a 10% v/v suspension. This HRBC suspension was employed to estimate its anti-inflammatory properties. Different concentrations of the synthesized compounds and the reference standard were each combined with 1 mL of phosphate buffer (pH 7.4), 2 mL of hyposaline, and 0.5 mL of HRBC solution. A total of 2.0 mL of distilled water was utilized as the control. The assay mixtures were all centrifuged at 3000 rpm after 30 min of incubation at 37°C. The following formula was used to determine the percentage of stabilized HRBC membranes. Percentage protection= 100 − (OD sample/OD control) × 100

| Structure (SMILES) | IC50 (human PPARγ- LBD) [µM] | Raw Data (human PPARγ- LBD; 0.0000512 µM) [RLU] | Raw Data - Background (human PPARγ- LBD; 0.0000512 µM) [RLU] | Raw Data (human PPARγ- LBD; 0.000256 µM) [RLU] | Raw Data - Background (human PPARγ- LBD; 0.000256 µM) [RLU] | Raw Data (human PPARγ- LBD; 0.00128 µM) [RLU] | Raw Data - Background (human PPARγ- LBD; 0.00128 µM) [RLU] | Raw Data (human PPARγ- LBD; 0.0064 µM) [RLU] | Raw Data - Background (human PPARγ- LBD; 0.0064 µM) [RLU] | Raw Data (human PPARγ- LBD; 0.032 µM) [RLU] | Raw Data - Background (human PPARγ- LBD; 0.032 µM) [RLU] | Raw Data (human PPARγ- LBD; 0.16 µM) [RLU] | Raw Data - Background (human PPARγ- LBD; 0.16 µM) [RLU] | Raw Data (human PPARγ- LBD; 0.8 µM) [RLU] | Raw Data - Background (human PPARγ- LBD; 0.8 µM) [RLU] | Raw Data (human PPARγ- LBD; 4 µM) [RLU] | Raw Data - Background (human PPARγ- LBD; 4 µM) [RLU] | Raw Data (human PPARγ- LBD; 20 µM) [RLU] | Raw Data - Background (human PPARγ- LBD; 20 µM) [RLU] | Raw Data (human PPARγ- LBD; 100 µM) [RLU] | further results |
| --- | --- | --- | --- | --- | --- | --- | --- | --- | --- | --- | --- | --- | --- | --- | --- | --- | --- | --- | --- | --- | --- |
| C=CCc1ccc(OCC(=O)Nc2cccc(Cl)c2)c(OC)c1 [Compound 1e, 2-(4-Allyl-2-methoxyphenoxy)-N-(3-chlorophenyl)acetamide] | 11.5 | 2.087 | 1.839 | 1.860 | 1.610 | 1.903 | 1.678 | 1.927 | 1.692 | 1.988 | 1.752 | 1.922 | 1.688 | 1.820 | 1.683 | 1.752 | 1.522 | 1.018 | 0.721 | 0.834 | Raw Data - Background (human PPARγ- LBD; 100 µM): 0.586 RLU; inhibition at 6.25 µM (egg albumin): 5.49 ± 0.43%; inhibition at 12.5 µM (egg albumin): 9.47 ± 0.39%; inhibition at 25 µM (egg albumin): 15.7 ± 0.24%; inhibition at 50 µM (egg albumin): 22.35 ± 0.18%; inhibition at 100 µM (egg albumin): 38.61 ± 0.3%; inhibition at 200 µM (egg albumin): 48.21 ± 0.18%; inhibition at 400 µM (egg albumin): 56.62 ± 0.37%; HRBC membrane stabilization (percentage protection against HRBC lysis) ([1]; 6.25 µM): 12.36 ± 0.48%; HRBC membrane stabilization (percentage protection against HRBC lysis) ([1]; 12.5 µM): 19.68 ± 0.38%; HRBC membrane stabilization (percentage protection against HRBC lysis) ([1]; 25 µM): 34.50 ± 0.36%; HRBC membrane stabilization (percentage protection against HRBC lysis) ([1]; 50 µM): 42.00 ± 0.56%; HRBC membrane stabilization (percentage protection against HRBC lysis) ([1]; 100 µM): 51.04 ± 0.46%; HRBC membrane stabilization (percentage protection against HRBC lysis) ([1]; 200 µM): 66.05 ± 0.36%; HRBC membrane stabilization (percentage protection against HRBC lysis) ([1]; 400 µM): 75.09 ± 0.36%; IC50 [1]: 58.1 µM |
| C=CCc1ccc(OCC(=O)Nc2ccccc2C)c(OC)c1 [Compound 1c, 2-(4-Allyl-2-methoxyphenoxy)-N-(o-tolyl)acetamide] | 8.2 | 1.881 | 1.647 | 1.88 | 1.646 | 1.88 | 1.637 | 1.886 | 1.651 | 1.902 | 1.657 | 1.994 | 1.76 | 1.991 | 1.756 | 1.33 | 1.096 | 0.1617 | 0.02704 | 0.06866 | Raw Data - Background (human PPARγ- LBD; 100 µM): -0.146 RLU; inhibition at 6.25 µM (egg albumin): 1.77 ± 0.37%; inhibition at 12.5 µM (egg albumin): 5.32 ± 0.37%; inhibition at 25 µM (egg albumin): 8.42 ± 0.24%; inhibition at 50 µM (egg albumin): 13.8 ± 0.43%; inhibition at 100 µM (egg albumin): 19.2 ± 0.24%; inhibition at 200 µM (egg albumin): 27.26 ± 0.24%; inhibition at 400 µM (egg albumin): 34.03 ± 0.31%; HRBC membrane stabilization (percentage protection against HRBC lysis) ([1]; 6.25 µM): 6.21 ± 0.38%; HRBC membrane stabilization (percentage protection against HRBC lysis) ([1]; 12.5 µM): 14.26 ± 0.38%; HRBC membrane stabilization (percentage protection against HRBC lysis) ([1]; 25 µM): 24.78 ± 0.38%; HRBC membrane stabilization (percentage protection against HRBC lysis) ([1]; 50 µM): 29.08 ± 0.46%; HRBC membrane stabilization (percentage protection against HRBC lysis) ([1]; 100 µM): 40.65 ± 0.28%; HRBC membrane stabilization (percentage protection against HRBC lysis) ([1]; 200 µM): 50.92 ± 0.48%; HRBC membrane stabilization (percentage protection against HRBC lysis) ([1]; 400 µM): 62.54% and 62.54 ± 0.36%; IC50 [1]: 79.7 µM |
